# Assay: CBD solubility in lipid excipients (about 0.345 g CBD exposed to 10 ml lipid)
# Format: physicochemical
# Conditions: approx. 0.345 g CBD in 10 ml
# Protocol: Approximately 0.345 g of CBD was exposed to 10 ml of the listed lipid and solubility was assessed.
smiles,measurement,setting,value
"C=C(C)[C@@H]1CCC(C)=C[C@H]1c1c(O)cc(CCCCC)cc1O [CBD, cannabidiol]",SOLUBILITY,solvent 1: Apricot Kernel Oil PEG-6 Esters,Medium CBD Solubility
same,SOLUBILITY,solvent 2: Corn Oil PEG-6 Ester,Medium CBD Solubility
same,SOLUBILITY,solvent 3: Ethoxydiglycol,Stability Problematic
same,SOLUBILITY,solvent 4: Glycerine soja (Soyean) oil (and) Glyceryl Distearate (and) Polyglyceryl-3 Dioleate,Medium CBD Solubility
same,SOLUBILITY,solvent 5: Glyceryl Linoleate,Bad CBD Solubility
same,SOLUBILITY,solvent 6: Glyceryl Oleate,Bad CBD Solubility
same,SOLUBILITY,solvent 7: PEG-8 Caprylic/Capric Glycerides,Stability Problematic
same,SOLUBILITY,solvent 8: Polyglyceryl-3-diolate,Bad CBD Solubility
same,SOLUBILITY,solvent 9: Propylene Glycol Caprate,Good CBD Solubility
same,SOLUBILITY,solvent 10: Propylene Glycol Laurate,Medium CBD Solubility
same,SOLUBILITY,solvent 13: PEG-8,Medium CBD Solubility
same,SOLUBILITY,solvent 18: Caprylic/Capric Triglyceride,Medium CBD Solubility
same,SOLUBILITY,solvent 19: PEG-8 Carylic/Capric Glycerides,Good CBD Solubility
same,SOLUBILITY,solvent 20: Glyceryl Caprylate/Caprate,Medium CBD Solubility
same,SOLUBILITY,solvent 21: Propylene Glycol Monocaprylate,Good CBD Solubility
same,SOLUBILITY,solvent 22: Olea Europaea (Olive) Oil,Bad CBD Solubility
same,SOLUBILITY,solvent 23: Glycine Soja (Soybean) Oil,Medium CBD Solubility

# — patent publication US20230094753A1, “NANOSTRUCTURE LIPID CARRIER DELIVERY SYSTEM, COMPOSITION, AND METHODS” (priority 2020, published 2023)
